Laboratory results: patent US20240252477A1, “NLRP3 INFLAMMASOME-INHIBITING COMPOUNDS AND THE USE THEREOF” (UNIVERSITA' DEGLI STUDI DI TORINO (60%), priority 2021, published 2024)
Blank lines part the entries; values can stand above or below the compound they belong to.

Key:
IL-1beta = target: T1, IL-1beta (Homo sapiens, UniProt P01584); conditions: cited from earlier work
T1 construct: host or cells: patients (clinical trial)

Cytotoxicity (MTT assay) = format: cell-based, human; conditions: human; THP-1 cells, 72 hours' incubation
Description: (§1) The THP-1 cells were seeded in a 96-well plate (15.000 cells/well) and incubated with the test compounds at four different concentrations (0.1, 1, 10 and 100 μM), operating in triplicate. The cells were placed in an incubator at 37° C., with 5% CO2, and cell viability was measured after 72 hours' incubation, using the MTT assay. This is a colorimetric assay, based on conversion of water-soluble 3-(4,5-dimethylthiazol-2-yl)-2,5-diphenyltetrazolium bromide (MTT; Sigma-Aldrich) to a violet-coloured insoluble formazan, by the mitochondrial dehydrogenase present in the live cells. The formazan is solubilised in acidified isopropanol, and the concentration is determined by measuring absorbance with a microplate reader (Victor X4—Ensight, PerkinElmer) at λ=570 nm. Viability was expressed as a percentage of the viability of the control cells, which were either untreated or treated with the carrier. The IC50 was calculated with the Graph Pad Prism software.

NLRP3 inflammasome [1] = target: T2, NLRP3 inflammasome (Homo sapiens, UniProt Q96P20); assay: NLRP3-dependent pyroptosis (LDH release) in PMA-differentiated THP-1 cells stimulated with LPS/ATP; format: cell-based; conditions: compounds at 10 μM for 1 hour, differentiated THP-1, LPS 10 μg/mL 4 hours, ATP 1.5 hours; for inhibition at 10 µM: read-out: Pyroptosis inhibition (% ± SEM)
T2 construct: The THP-1 cells were differentiated into macrophages by treating them with PMA 50 nM; endogenous in cells; host or cells: THP-1 (human monocytic leukaemia line), PMA-differentiated, primed with LPS, triggered with ATP
T2 sequence (Q96P20 whole entry): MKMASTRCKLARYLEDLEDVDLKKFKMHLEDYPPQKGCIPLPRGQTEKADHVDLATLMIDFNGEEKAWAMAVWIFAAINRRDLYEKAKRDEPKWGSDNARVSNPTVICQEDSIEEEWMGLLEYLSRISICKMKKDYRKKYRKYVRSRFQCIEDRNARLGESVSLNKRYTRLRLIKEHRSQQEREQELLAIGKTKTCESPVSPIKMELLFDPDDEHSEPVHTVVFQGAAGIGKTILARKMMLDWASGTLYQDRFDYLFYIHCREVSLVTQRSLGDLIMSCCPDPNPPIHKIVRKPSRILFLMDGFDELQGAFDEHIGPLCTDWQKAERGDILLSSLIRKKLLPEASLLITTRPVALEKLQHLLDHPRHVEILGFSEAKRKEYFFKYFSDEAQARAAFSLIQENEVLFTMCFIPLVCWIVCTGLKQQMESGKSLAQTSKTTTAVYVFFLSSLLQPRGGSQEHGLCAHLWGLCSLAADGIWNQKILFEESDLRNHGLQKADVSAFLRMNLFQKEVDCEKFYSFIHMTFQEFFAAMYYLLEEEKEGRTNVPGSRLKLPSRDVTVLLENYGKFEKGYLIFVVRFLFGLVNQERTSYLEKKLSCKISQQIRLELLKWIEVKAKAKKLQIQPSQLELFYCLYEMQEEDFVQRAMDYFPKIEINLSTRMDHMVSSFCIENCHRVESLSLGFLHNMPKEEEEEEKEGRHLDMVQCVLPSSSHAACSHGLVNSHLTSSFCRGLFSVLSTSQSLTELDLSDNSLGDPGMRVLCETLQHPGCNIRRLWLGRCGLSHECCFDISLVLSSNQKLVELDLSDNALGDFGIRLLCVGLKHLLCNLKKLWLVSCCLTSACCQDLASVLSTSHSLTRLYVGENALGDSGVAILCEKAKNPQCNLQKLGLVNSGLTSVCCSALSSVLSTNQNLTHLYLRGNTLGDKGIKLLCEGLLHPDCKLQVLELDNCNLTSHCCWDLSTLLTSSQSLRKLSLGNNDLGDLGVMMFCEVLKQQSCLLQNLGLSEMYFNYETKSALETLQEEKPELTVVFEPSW
Description: (§2) THP-1 cells, a monocytic human cell line derived from the peripheral blood of a patient suffering from acute monocytic leukaemia (www.atcc.org), were cultured in RPMI 1640 medium (Aurogene, Rome, Italy), with the addition of foetal bovine serum (10%, Aurogene), L-glutamine (2 mM, Aurogene), penicillin (100 IU/ml, Aurogene) and streptomycin ([…], Aurogene). The medium was changed every 2-3 days, and the cells were maintained in an incubator at 37° C., with 5% CO2, and with suitable humidity.
The cells were seeded in 48-well plates (90.000 cells/well), and differentiated with phorbol 12-myristate 13-acetate (PMA—50 nM, 24 hours; Sigma-Aldrich). On the next day, the differentiated THP-1s were washed twice with the balanced saline solution phosphate-buffered saline (PBS), and stimulated with lipopolysaccharide (LPS) (10 μg/mL, 4 hours; Sigma-Aldrich), prepared in serum-free medium. After 4 hours the cells were incubated with the compounds at the concentration of 10 μM for 1 hour, operating in triplicate; INF176 and INF177 were tested at three different concentrations: […]. Finally, the cells were stimulated with ATP 5 mm for 1.5 hours. The supernatants were then harvested for the subsequent analyses.
LDH release into the supernatant obtained as described above was quantified using the CytoTox 96 nonradioactive cytotoxicity assay (Promega Corporation, Madison, […], USA), a colorimetric assay wherein LDH activity is measured with an NADH-dependent enzymatic reaction:
Briefly, an equal volume of CytoTox Reagent was added to the supernatant and, after 30 minutes' incubation, the reaction was stopped by adding the stop solution. The formazan concentration was determined by measuring absorbance, using a microplate reader (Victor X4—EnSight, PerkinElmer, Waltham, MA, USA), at λ=490 nm. Cell death was expressed according to the manufacturer's instructions.
The compound INF176 was tested to measure its ability to inhibit NLRP3-dependent cell pyroptosis in human macrophages, using the experimental protocol previously published [Cocco et al. 2017].
The THP-1 cells were differentiated into macrophages by treating them with PMA 50 nM (24 hours) and then with LPS (10 μg/mL) for 4 hours. The cells were treated with the compound (10 μM) for 1 hour. Pyroptosis was induced by treatment with ATP 5 mm. After 90 minutes, cell death was evaluated by measuring the LDH level in the cell supernatant using the CytoTox 96 Non-Radioactive Cytotoxicity Assay (Promega Corporation, Madison, […], USA).

colon of SAMP8 animals = assay: Colon contractions elicited by electrical stimuli (in vitro), SAMP8; parameters: species or system mice
SAMP8 mice = assay: SAMP8 mice, model of neurodegenerative disorders (Morris test, brain markers); format: in vivo; conditions: SAMP8, 50 mg/kg/day p.o., 2 months
Description: Compound INF176 was tested in vivo in an animal model of mice with spontaneous accelerated senescence (SAMP8), used as a model of neurodegenerative disorders such as mild cognitive impairment (MCI), which in most cases evolve to Alzheimer's disease (AD).

[2] = system: murine model of colitis induced by dextran sodium sulphate (DSS); assay: Colitis induced by dextran sodium sulphate (DSS), murine model; format: in vivo; conditions: 25 mg/kg/day and 50 mg/kg/day p.o.
Description: In particular, oral administration (p.o.) of INF176 at the doses of 25 mg/kg/day and 50 mg/kg/day gave rise to an improvement in the systemic and tissue parameters associated with colitis (FIGS. 2-3).

SAMP8 animals = assay: SAMP8 animals: colon transit and colon IL-1β; format: in vivo, mice
NLRP3 inflammasome [3] = target: T2, NLRP3 inflammasome; assay: IL-1β release (ELISA) from differentiated THP-1 cells stimulated with LPS/ATP; format: cell-based; conditions: at the maximum concentration tested (FIG. 1B)
Description: as §2
The cells were seeded in 48-well plates (90.000 cells/well), and differentiated with phorbol 12-myristate 13-acetate (PMA—50 nM, 24 hours; Sigma-Aldrich). On the next day, the differentiated THP-1s were washed twice with the balanced saline solution phosphate-buffered saline (PBS), and stimulated with lipopolysaccharide (LPS) (10 μg/mL, 4 hours; Sigma-Aldrich), prepared in serum-free medium. […]
IL-1β release into the supernatant of cells treated as described above was determined with the Human IL-1 beta Uncoated ELISA kit (Invitrogen, Waltham, MA, USA), according to the manufacturer's instructions. […]
The interleukin levels were determined by measuring absorbance at X=450 nm, using a microplate reader (Victor X4—EnSight).

THP-1 cells = assay: Cytotoxicity (MTT assay); format: cell-based, human
Description: as §1

[4] = Stability in PBS pH 7.4 with excess glutathione or cysteamine (HPLC); format: physicochemical; conditions: 100 μM, PBS pH 7.4, 37° C.
Description: The compound INF177 was incubated at the concentration of 100 μM in PBS pH 7.4 (0.1% DMSO) at 37° C., in the absence and in the presence of excess glutathione or cysteamine (10×). The reaction mixture underwent repeated HPLC analyses over 24 hours.
The HPLC analysis was conducted with an HP 1200 chromatography system (Agilent Technologies, Palo Alto, CA, USA) consisting of an integrated quaternary pump (model G1311A), degasser (model G1322A), UV MWD detector (model G1365D) and fluorescence detector (model G1321A). The data were processed with the HP ChemStation system program (Agilent Technologies).
The analyses were conducted using the ZORBAX SB-Phenyl column (250×4.6 mm, 5 μm; Agilent) as stationary phase and CH3CN/H2O (+0.1% HCOOH), 70/30 (v/v), flow rate=1.0 mL/min, as mobile phase, injecting 20 μL of sample (Rheodyne, Cotati, CA); the chromatograms were acquired at the wavelengths of 234 and 250 nm.

Compound: canakinumab
reduction in lung cancer deaths (IL-1beta; after treatment with canakinumab): 77%
change in mortality due to cardiovascular events (IL-1beta; patients at cardiovascular risk): −31%

Compound: CCOC(=O)C1CCCN(C(=O)/C(=C/c2ccccc2Cl)CSc2ccccc2)C1 (stereo not shown) [INF176, ethyl (Z)-1-(3-(2-chlorophenyl)-2-((phenylthio)methyl)acryloyl)piperidine-3-carboxylate]
cholinergic colon contractions (colon of SAMP8 animals; SAMP8, 50 mg/kg (FIG. 5)): significantly enhancing
tachykininergic colon contractions (colon of SAMP8 animals; SAMP8, 50 mg/kg (FIG. 5)): significantly enhancing
colon contractions elicited by electrical stimuli (colon of SAMP8 animals; SAMP8, 50 mg/kg (FIG. 5B)): significantly improves
cognitive decline (Morris test: escape latency, crossings in quadrant, entries into quadrant) (SAMP8 mice): significantly counteracts cognitive decline
expression of p-tau protein in brain tissues (SAMP8 mice): significantly reduces expression of p-tau protein
body weight (weight loss) [2]: counteracts weight loss
disease activity index (DAI) [2]: significantly reduces
interleukin-1beta levels in colon tissues [2]: significantly reduces
myeloperoxidase levels in colon tissues [2]: significantly reduces
spleen weight [2]: counteracts weight loss and increased spleen weight
IC50 at 72 h (Cytotoxicity (MTT assay)): 94.2 ± 6.9 µM
inhibition at 10 µM (NLRP3 inflammasome [1]): 45.2 ± 7.2%
colon transit (pellets expelled in 1 hour) (SAMP8 animals; SAMP8, 50 mg/kg (FIG. 5A)): improves slowing of colon transit
IL-1β levels in the colon (SAMP8 animals; SAMP8, 50 mg/kg (FIG. 6)): reduces the increase in IL-1β levels
inhibition of IL-1beta release from human macrophages (NLRP3 inflammasome [3]): 35±1.2%

Compound: CCOC(=O)/C(=C/c1ccccc1Cl)CSC1CCCCC1 [INF56, (Z)-ethyl 3-(2-chlorophenyl)-2-((cyclohexylthio)methyl)acrylate]
IC50 at 72 h (Cytotoxicity (MTT assay)): > 100 µM
inhibition at 10 µM (NLRP3 inflammasome [1]): 41.6 ± 3.9%

Compound: CCOC(=O)C(CSCC(NC(=O)OC(C)(C)C)C(=O)OC)Cc1ccccc1Cl (stereo not shown) [INF55, ethyl 3-((2-((tert-butoxycarbonyl)amino)-3-methoxy-3-oxopropyl)thio)-2-(2-chlorobenzyl)propanoate]
IC50 at 72 h (Cytotoxicity (MTT assay)): > 100 µM
inhibition at 10 µM (NLRP3 inflammasome [1]): < 10%

Compound: CCOC(=O)C(CSc1ccccc1)Cc1ccccc1Cl (stereo not shown) [INF43, ethyl 2-(2-chlorobenzyl)-3-(phenylthio)propanoate]
IC50 at 72 h (Cytotoxicity (MTT assay)): > 100 µM
inhibition at 10 µM (NLRP3 inflammasome [1]): 51 ± 5.6%

Compound: CCOC(=O)/C(=C/c1ccccc1Cl)COc1ccccc1 [INF57, (E)-ethyl 3-(2-chlorophenyl)-2-(phenoxymethyl)acrylate]
IC50 at 72 h (Cytotoxicity (MTT assay)): > 100 µM
inhibition at 10 µM (NLRP3 inflammasome [1]): 34.5 ± 0.3%

Second part, led by results:

melting point: 60.5 to 61.4 °C
inhibition at 10 µM (NLRP3 inflammasome [1]): 13 ± 8.2%
Compound: NC(=O)C1CCCN(C(=O)/C(=C/c2ccccc2Cl)CSc2ccccc2)C1 (stereo not shown) [INF219, (Z)-1-(3-(2-chlorophenyl)-2-((phenylthio)methyl)acryloyl)piperidine-3-carboxamide]
IC50 at 72 h (Cytotoxicity (MTT assay)): > 100 µM

Pyroptosis inhibition (% ± SEM) (NLRP3 inflammasome [1]): <10%
Compound: (Z)-3-(2-chlorophenyl)-2-((phenylthio)methyl)acrylic acid [INF80]
IC50 (THP-1 cells): 92.8 ± 1.6 µM

inhibition at 10 µM (NLRP3 inflammasome [1]): 20.1 ± 9.8%
reactivity towards glutathione or cysteamine ([4]; 10× excess thiol, over 24 hours): no appreciable reactivity was observed
% compound remaining ([4]; cysteamine 10×, after 2.5 hours): > 98%
% compound remaining ([4]; glutathione 10×, after 4 hours): > 98%
% compound remaining ([4]; glutathione or cysteamine 10×, 24 hours): ≥ 96%
Compound: O=C(O)C1CCCN(C(=O)/C(=C/c2ccccc2Cl)CSc2ccccc2)C1 (stereo not shown) [INF177, (Z)-1-(3-(2-chlorophenyl)-2-((phenylthio)methyl)acryloyl)piperidine-3-carboxylic acid]
IC50 at 72 h (Cytotoxicity (MTT assay)): > 100 µM

inhibition at 10 µM (NLRP3 inflammasome [1]): < 10%
Compound: O=C(O)/C(=C/c1ccccc1Cl)CSC1CCCCC1 [INF86, (Z)-3-(2-chlorophenyl)-2-((cyclohexylthio)methyl)acrylic acid]
IC50 at 72 h (Cytotoxicity (MTT assay)): > 100 µM

inhibition at 10 µM (NLRP3 inflammasome [1]): < 10%
Compound: CCOC(=O)C1CCN(C(=O)C(CSC2CCCCC2)Cc2ccccc2Cl)CC1 (stereo not shown) [INF193, ethyl 1-(2-(2-chlorobenzyl)-3-(cyclohexylthio)propanoyl)piperidine-4-carboxylate]
IC50 at 72 h (Cytotoxicity (MTT assay)): 77.5 ± 7.3 µM
